In patent US7705153B2, “Bipiperdine derivatives useful as CCR3 antagonists” (Schering Corporation, priority 2004, dated 2010):

Columns and labels:
human CCR3 [1] = molecular target: T1, human CCR3 (Homo sapiens, UniProt P51677); assay: CCR3 SPA-based receptor binding assay; set-up: host or cells: Y3 cell line (rat), selected with G418; details: [125I]-eotaxin competition, membranes from human CCR3 transfected Y3 cell line
T1 sequence (P51677 1-355): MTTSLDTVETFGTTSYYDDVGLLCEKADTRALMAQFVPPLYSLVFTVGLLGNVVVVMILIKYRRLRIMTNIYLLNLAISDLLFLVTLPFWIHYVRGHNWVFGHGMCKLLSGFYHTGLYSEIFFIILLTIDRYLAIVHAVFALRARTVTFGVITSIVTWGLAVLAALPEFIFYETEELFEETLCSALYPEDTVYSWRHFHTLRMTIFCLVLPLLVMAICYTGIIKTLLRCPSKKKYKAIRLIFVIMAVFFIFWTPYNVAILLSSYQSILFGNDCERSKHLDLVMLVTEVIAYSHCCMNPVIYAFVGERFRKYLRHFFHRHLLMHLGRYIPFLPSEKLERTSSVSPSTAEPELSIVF
Method: CCR3 SPA-Based Receptor Binding Assay:
The procedure used was disclosed in Dairaghi et al, J. Biol. Chem., 272 (1997), pg. 28206-28209, and is described in detail below.
The source of the CCR3 receptors for this assay was purified membranes from a human CCR3 transfected Y3 cell line. Membranes were prepared by MDS Pharma Services (Bothell, Wash.) as follows. Cells were grown under selection (1 mg/ml G418) in 50-stack cube bioreactors with minimal media recirculation. Cells were harvested with trypsin and washed once with PBS. Cells were resuspended in 20 volumes of ice cold 2.5 mM Tris-HCl, pH 7.4 containing protease inhibitors (0.3 mM PMSF, 3 μg/ml aprotinin, 3 μg/ml luepeptin) and incubated on ice for 15 min. The swollen cells were lysed by vigorous vortexing and large debris was removed by centrifugation (1200 rpm, 5 min., 4° C.). The cleared lysate was subjected to ultra-centrifugation (100,000×g, 1 hr., 4° C.) to pellet the membrane fraction and the membrane fraction was resuspended in 25 mM HEPES, pH 7.6, 75 mM NaCl, 1 mM EDTA. Protease inhibitors were added as described above after a sample was removed for protein determination. The membrane preparation was brought to 6 to 10 mg/ml final concentration and BSA was added to 0.5%. Membranes were stored in 1 ml aliquots (−70° C.). […]

human CCR3 [2] = molecular target: T1, human CCR3; assay: Intracellular calcium (Calcium flux, FLIPR) assay in CREM3 cells; type: cell-based; set-up: expressed in transfected cells; host or cells: CREM3 cells (rat Y3 cell line stably expressing human CCR3); details: CREM3 cells (human CCR3 in rat Y3 cell line)
Method: An IC50 value was interpolated from the dilution series for each compound and used to calculate a Ki value using the following equation: Ki=IC50/(1+[ligand]/Kd) Intracellular Calcium Assay: Cell Culture:
CREM3 cells, in which the human CCR3 receptor is stably expressed in the rat Y3 cell line, were cultured in DMEM high glucose containing 10% FBS, 50 U/ml penicillin, 50 μg/ml streptomycin, 2 mM L-glutamine, 1 mg/ml G418 (Gemini Bioproducts). Cells were cultured in fresh medium every 2 days.
Intracellular calcium levels were measured using a fluorometric imaging plate reader (FLIPR), (Molecular Devices, Sunnyvale Calif.) as described by the manufacturer. CREM3 cells were cultured overnight at 20,000 cells/well in 96 well black-wall clear bottom plates (Packard), precoated with 100 μg/ml poly D-lysine hydrobromide (Sigma). Adherent CREM3 cells were loaded with 4 μM Fluo-3 AM (Molecular Probes, Eugene, Oreg.), in pH 7.4 HBSS without phenol red, containing 20 mM HEPES, 0.5% FBS, 2.5 mM probenecid (Sigma), 0.04% pluronic acid (Molecular Probes) for 1 h at 37° C. […] Fluorescence data was collected at 1 s interval for 60 s, followed by collection at 2 s intervals for 60 s. Background fluorescence was quantitated in wells containing cells but no chemokines and was subtracted from all experimental samples. […]

Work on `COc1ccc(C(=O)N2CCC(N3CC[C@@H](Cc4ccc(Cl)c(Cl)c4)[C@@H](CO)C3)CC2)c2cccnc12` (relative stereo) [Example 2-EE] yielded a Ki (human CCR3 [1]) of 2.8 nM and an IC50 (human CCR3 [2]) of 3.6 nM.
